# Data from patent publication US20250197384A1, “AZOLE COMPOUND AND ANTIFUNGAL AGENT” (NIHON NOHYAKU CO., LTD., priority 2022, published 2025).
# Columns and labels:
# Assay type in all cases: cell-based
# [1] = test system: Aspergillus fumigatus TIMM0063; assay: In vitro anti-Aspergillus activity test; conditions: for minimum inhibitory concentration against various fungi (MIC) A. fumigatus / MIC: Table 22, 35° C. for 48 hr, alamar Blue, minimum concentration showing 80% or more inhibition; for MIC: Aspergillus fumigatus, read-out: minimum inhibitory concentration against various fungi (MIC) A. fumigatus; for A. fumigatus (MIC): 80% or more inhibition, unit inferred
# Protocol: Aspergillus fumigatus TIMM0063 was used as the strain. The test fungi were cultured on a Potato dextrose agar slant medium at 35° C. for 4 days, and then sterilized saline containing 0.1% (v/v) Tween 80 was added to release the conidia. This conidial suspension was filtered through sterile gauze, and the number of conidia was counted using a hemocytometer. The same solution was adjusted to a conidial concentration of 1×10^6 conidia/mL, and this was used as an inoculum. Each compound was dissolved in dimethyl sulfoxide to a predetermined concentration, and diluted 50-fold with 0.165 M MOPS buffered RPMI 1640 liquid medium, and each diluted solution was dispensed into a 96-well microplate by each 100 μL. The inoculum was diluted 50-fold with 0.165 M MOPS buffered RPMI 1640 liquid medium containing 20% alamar Blue™, and the diluted solution was inoculated into the 96-well microplate containing the compound by each 100 μL (final inoculum amount 1.0×10^4 conidia/mL). After static culture at 35° C. for 48 hr, the degree of color development of the alamar Blue™ was measured using a microplate reader (O.D. 570-595 nm), and the minimum concentration showing 80% or more inhibition was defined as the minimum inhibitory concentration (MIC).
# [2] = test system: Candida albicans NBRC1270; assay: In vitro anti-Candida activity test; conditions: for minimum inhibitory concentration against various fungi (MIC) C. albicans / MIC: Table 22, 35° C. for 24 hr, alamar Blue, minimum concentration showing 80% or more inhibition; for MIC: Candida albicans, read-out: minimum inhibitory concentration against various fungi (MIC) C. albicans; for C. albicans (MIC): 80% or more inhibition, unit inferred
# Protocol: Candida albicans NBRC1270 was used as the strain. The test fungi were cultured on a Sabouraud dextrose agar slant medium at 35° C. for 24 hr, and then suspended in sterilized saline. The number of cells in this suspension was counted using a hemocytometer, and the same suspension was adjusted to a cell concentration of 1.5×10^5 cells/mL, and this was used as an inoculum. Each compound was dissolved in dimethyl sulfoxide to a predetermined concentration, and diluted 50-fold with 0.165 M MOPS buffered RPMI 1640 liquid medium, and each diluted solution was dispensed into a 96-well microplate by each 100 μL. The inoculum was diluted 50-fold with 0.165 M MOPS buffered RPMI 1640 liquid medium containing 20% alamar Blue™, and the diluted solution was inoculated into the 96-well microplate containing the compound by each 100 μL (final inoculum amount 1.5×10^3 cells/mL). After static culture at 35° C. for 24 hr, the degree of color development of the alamar Blue™ was measured using a microplate reader (O.D. 570-595 nm), and the minimum concentration showing 80% or more inhibition was defined as the minimum inhibitory concentration (MIC).
# [3] = test system: Trichophyton rubrum NBRC6203; assay: In vitro anti-tinea fungus activity test (T. rubrum); conditions: Table 22, 27° C. for 5 days, alamar Blue, minimum concentration showing 80% or more inhibition; for MIC: Trichophyton rubrum, 120 h, read-out: minimum inhibitory concentration against various fungi (MIC) T. rubrum
# Protocol: (§1) Trichophyton rubrum NBRC6203 and Trichophyton mentagrophytes TIMM2789 were used as the strains. The test fungi were cultured on a Sabouraud dextrose agar slant medium at 27° C. for 10-13 days, and then suspended in sterilized saline. The number of cells in this suspension was counted using a hemocytometer, and the same suspension was adjusted to a cell concentration of 2×10^6 conidia/mL, and this was used as an inoculum. Each compound was dissolved in dimethyl sulfoxide to a predetermined concentration, and diluted 50-fold with 0.165 M MOPS buffered RPMI 1640 liquid medium, and each diluted solution was dispensed into a 96-well microplate by each 100 μL. The inoculum was diluted 50-fold with 0.165 M MOPS buffered RPMI 1640 liquid medium containing 20% alamar Blue™, and the diluted solution was inoculated into the 96-well microplate containing the compound by each 100 μL (final inoculum amount 2×10^4 conidia/mL). After static culture at 27° C. for 3 days (Trichophyton mentagrophytes) or for 5 days (Trichophyton rubrum), the degree of color development of the alamar Blue™ was measured using a microplate reader (O.D. 570-595 nm), and the minimum concentration showing 80% or more inhibition was defined as the minimum inhibitory concentration (MIC).
# [4] = test system: Trichophyton mentagrophytes TIMM2789; assay: In vitro anti-tinea fungus activity test (T. mentagrophytes); conditions: Table 22, 27° C. for 3 days, alamar Blue, minimum concentration showing 80% or more inhibition; for MIC: Trichophyton mentagrophytes, 72 h, read-out: minimum inhibitory concentration against various fungi (MIC) T. mentagrophytes
# Protocol: as §1
Structure (SMILES),minimum inhibitory concentration against various fungi (MIC) A. fumigatus [1] [ng/mL],minimum inhibitory concentration against various fungi (MIC) C. albicans [2] [ng/mL],"A. fumigatus (MIC) ([1]; Table 23, 35° C. for 48 hr) [ng/mL]","C. albicans (MIC) ([2]; Table 23, 35° C. for 24 hr) [ng/mL]",further results
N#C/C(=C1/SCC(c2ncc(Br)cc2Cl)S1)n1ccnc1 (racemic) [Compound No. 1],1.3,100,,,minimum inhibitory concentration against various fungi (MIC) T. rubrum [3]: ≤1 ng/mL; minimum inhibitory concentration against various fungi (MIC) T. mentagrophytes [4]: ≤1 ng/mL
N#C/C(=C1/SCC(c2ncc(N)cc2Cl)S1)n1ccnc1 (racemic) [Compound No. 2],10,1000,,,minimum inhibitory concentration against various fungi (MIC) T. rubrum [3]: 10 ng/mL; minimum inhibitory concentration against various fungi (MIC) T. mentagrophytes [4]: 10 ng/mL
"CCCC1CC(c2cnc(C3CS/C(=C(/C#N)n4ccnc4)S3)c(Cl)c2)=NO1 (centres unmarked) [Compound No. 6, (E)-2-{4-[3-chloro-5-(5-propyl-4,5-dihydroisoxazol-3-yl)pyridin-2-yl]-1,3-dithiolan-2-ylidene}-2-(1H-imidazol-1-yl)acetonitrile]",,,,,MIC [1]: 5 ng/mL; MIC [2]: 10 ng/mL; MIC [3]: 10 ng/mL; MIC [4]: 10 ng/mL
"CCOC(=O)Nc1cnc([C@@H]2CS/C(=C(/C#N)n3cncn3)S2)c(F)c1 [Compound No. 8, ethyl (R,E)-(6-{2-[cyano(1H-1,2,4-triazol-1-yl)methylene]-1,3-dithiolan-4-yl}-5-fluoropyridin-3-yl)carbamate]",,,,,MIC [1]: 5 ng/mL; MIC [2]: 25 ng/mL
"CCOC(=O)Nc1cnc(C2CS/C(=C(/C#N)n3cncn3)S2)c(F)c1 (centres unmarked) [Compound No. 10, ethyl (E)-(6-{2-[cyano(1H-1,2,4-triazol-1-yl)methylene]-1,3-dithiolan-4-yl}-5-fluoropyridin-3-yl)carbamate]",,,,,MIC [1]: 25 ng/mL; MIC [2]: 50 ng/mL; MIC [3]: 10 ng/mL; MIC [4]: 10 ng/mL
"COC(=O)Nc1cnc(C2CS/C(=C(/C#N)n3ccnc3)S2)c(Cl)c1 (centres unmarked) [Compound No. 15, methyl (E)-(5-chloro-6-{2-[cyano(1H-imidazol-1-yl)methylene]-1,3-dithiolan-4-yl}pyridin-3-yl)carbamate]",,,,,MIC [1]: 5 ng/mL; MIC [2]: 2.5 ng/mL; MIC [3]: 10 ng/mL; MIC [4]: 10 ng/mL
CC1(C)OCC(c2cnc(C3CS/C(=C(/C#N)n4ccnc4)S3)c(Cl)c2)O1 (centres unmarked) [compound 5],10,5,,,
N#C/C(=C1/SCC(c2ncc(NC(=O)OCc3ccccc3)cc2Cl)S1)n1cncn1 (centres unmarked) [compound 14],5,1.3,,,
N#C/C(=C1/SCC(c2ncc(NC(=O)OCc3ccccc3)cc2Cl)S1)n1ccnc1 (centres unmarked) [compound 17],5,1.3,,,
N#C/C(=C1/SCC(c2ncc(/C=N/OCc3ccccc3)cc2Cl)S1)n1ccnc1 (centres unmarked) [compound 26],5,1.3,,,
"N#C/C(=C1/SCC(c2ncc(COC3CCCCO3)cc2Cl)S1)n1ccnc1 (centres unmarked) [compound 28, (E)-2-[4-(3-chloro-5-{[(tetrahydro-2H-pyran-2-yl)oxy]methyl}pyridin-2-yl)-1,3-dithiolan-2-ylidene]-2-(1H-imidazol-1-yl)acetonitrile]",,,10,10,
N#C/C(=C1/SCC(c2ncc(NC(=O)OCCCl)cc2Cl)S1)n1ccnc1 (centres unmarked) [compound 66],,,10,5,
N#C/C(=C1/SCC(c2ncc(NC(=O)OCCCCl)cc2Cl)S1)n1ccnc1 (centres unmarked) [compound 67],,,10,2.5,
N#C/C(=C1/SCC(c2ncc(NC(=O)OCc3ccc(F)cn3)cc2Cl)S1)n1cncn1 (centres unmarked) [compound 73],,,10,10,
N#C/C(=C1/SCC(c2ncc(NC(=O)OCc3ccc(F)nc3)cc2Cl)S1)n1cncn1 (centres unmarked) [compound 74],,,10,10,
N#C/C(=C1/SC[C@@H](c2ncc(NC(=O)OCc3ccccc3)cc2Cl)S1)n1cncn1 [compound 100],,,2.5,0.63,
N#C/C(=C1/SC[C@@H](c2ncc(NC(=O)OCC3CC3(F)F)cc2Cl)S1)n1cncn1 (some centres unmarked) [compound 130],,,,,"A. fumigatus (MIC) ([1]; Table 24, 35° C. for 48 hr): 5 ng/mL; C. albicans (MIC) ([2]; Table 24, 35° C. for 24 hr): 2.5 ng/mL"
N#C/C(=C1/SC[C@@H](c2ncc(NC(=O)OCC3CC3(F)F)cc2F)S1)n1cncn1 (some centres unmarked) [compound 131],,,,,"A. fumigatus (MIC) ([1]; Table 24, 35° C. for 48 hr): 10 ng/mL; C. albicans (MIC) ([2]; Table 24, 35° C. for 24 hr): 10 ng/mL"
N#C/C(=C1/SC[C@@H](c2ncc(NC(=O)OCC3(F)CC3)cc2Cl)S1)n1cncn1 [compound 155],,,,,"A. fumigatus (MIC) ([1]; Table 25, 35° C. for 48 hr): 10 ng/mL; C. albicans (MIC) ([2]; Table 25, 35° C. for 24 hr): 2.5 ng/mL"

# Second part, led by results:
minimum inhibitory concentration against various fungi (MIC) A. fumigatus [1] [ng/mL],minimum inhibitory concentration against various fungi (MIC) C. albicans [2] [ng/mL],"A. fumigatus (MIC) ([1]; Table 23, 35° C. for 48 hr) [ng/mL]","C. albicans (MIC) ([2]; Table 23, 35° C. for 24 hr) [ng/mL]",Structure (SMILES),further results
5,13,,,COC(=O)Nc1cnc([C@@H]2CS/C(=C(/C#N)n3cncn3)S2)c(Cl)c1 [compound 9],
5,2.5,,,N#C/C(=C1/SCC(c2ncc(NC(=O)OCc3ccccc3)cc2F)S1)n1cncn1 (centres unmarked) [compound 13],
10,50,,,CO/N=C/c1cnc(C2CS/C(=C(/C#N)n3cncn3)S2)c(F)c1 (centres unmarked) [compound 18],
10,13,,,CCO/N=C/c1cnc(C2CS/C(=C(/C#N)n3cncn3)S2)c(F)c1 (centres unmarked) [compound 20],
5,0.6,,,N#C/C(=C1/SCC(c2ncc(/C=N/OCc3ccccc3)cc2F)S1)n1cncn1 (centres unmarked) [compound 22],
,,5,5,CCOC(=O)Nc1cnc([C@@H]2CS/C(=C(/C#N)n3cncn3)S2)c(Cl)c1 [compound 79],
,,2.5,0.63,N#C/C(=C1/SC[C@@H](c2ncc(NC(=O)OCC3CC3)cc2Cl)S1)n1cncn1 [compound 92],
,,2.5,2.5,CCCOC(=O)Nc1cnc([C@@H]2CS/C(=C(/C#N)n3cncn3)S2)c(Cl)c1 [compound 94],
,,5,1.25,N#C/C(=C1/SC[C@@H](c2ncc(NC(=O)OCc3ccccc3)cc2F)S1)n1cncn1 [compound 106],
,,5,10,CCCOC(=O)Nc1cnc([C@@H]2CS/C(=C(/C#N)n3cncn3)S2)c(F)c1 [compound 110],
